#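 Briefly, cells in 96-well plates were exposed to five compound concentrations for 48 h, and endpoints were estimated by linear interpolation. GI50 marks 50% less growth.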 The source made the active and inactive calls. No stated cut-off is given here; in the data, active = GI50 up to about 1.1 µM and inactive = higher.
# Key:
# Experiment in all cases: inhibition of tumour cell growth, NCI panel, 48 h
# [1] = tested on: A549
# [2] = tested on: NCI-H23
# [3] = tested on: OVCAR-8
# [4] = tested on: DU-145
# [5] = tested on: SK-MEL-28
# [6] = tested on: IGROV-1
# [7] = tested on: OVCAR-3
# [8] = tested on: PC-3
# [9] = tested on: HL-60
# [10] = tested on: ACHN
# [11] = tested on: 786-0
# [12] = tested on: COLO 205
# [13] = tested on: HT-29
# [14] = tested on: RXF 393
# [15] = tested on: NCI/ADR-RES
# [16] = tested on: Hs-578T
# [17] = tested on: KM12
# [18] = tested on: LOX IMVI
# [19] = tested on: EKVX
# [20] = tested on: CAKI-1
# [21] = tested on: SF-268
# [22] = tested on: K562
# [23] = tested on: CCRF-CEM
# [24] = tested on: HCT-116
# [25] = tested on: Malme-3M
# [26] = tested on: HOP-62
# [27] = tested on: HCC 2998
# [28] = tested on: U-251
# [29] = tested on: T47D
# [30] = tested on: SNB-75
# [31] = tested on: OVCAR-4
# [32] = tested on: HCT-15
# [33] = tested on: TK-10
# [34] = tested on: NCI-H522
# [35] = tested on: OVCAR-5
# [36] = tested on: SN12C
# [37] = tested on: UACC-62
# [38] = tested on: SNB-19
# [39] = tested on: SF-539
# [40] = tested on: A498
# [41] = tested on: MDA-MB-231
# [42] = tested on: MDA-MB-435
# [43] = tested on: M14
# [44] = tested on: NCI-H460
# [45] = tested on: SK-MEL-5
# [46] = tested on: SK-MEL-2
# [47] = tested on: MCF7
# [48] = tested on: NCI-H226
# [49] = tested on: SW-620
# [50] = tested on: SK-OV-3
# [51] = tested on: MDA-N
# [52] = tested on: UACC-257
# [53] = tested on: SF-295
# [54] = tested on: RPMI-8226
# [55] = tested on: UO-31
# [56] = tested on: MOLT-4
compound,measurement,setting,value
C[C@H]1ON2CCC[C@@H]2[C@@H]1C(=O)N1C2CC3CCC2(CS1(=O)=O)C3(C)C (stereo partly drawn),GI50,[1],> 100 µM (inactive)
same,GI50,[2],> 100 µM (inactive)
same,GI50,[3],> 100 µM (inactive)
same,GI50,[4],> 100 µM (inactive)
same,GI50,[5],> 100 µM (inactive)
same,GI50,[6],> 100 µM (inactive)
same,GI50,[7],> 100 µM (inactive)
same,GI50,[8],> 100 µM (inactive)
same,GI50,[9],0.295 µM (active)
same,GI50,[10],> 100 µM (inactive)
same,GI50,[11],> 100 µM (inactive)
same,GI50,[12],> 100 µM (inactive)
same,GI50,[13],> 100 µM (inactive)
same,GI50,[14],> 100 µM (inactive)
same,GI50,[15],> 100 µM (inactive)
same,GI50,[16],> 100 µM (inactive)
same,GI50,[17],> 100 µM (inactive)
same,GI50,[18],> 100 µM (inactive)
same,GI50,[19],> 100 µM (inactive)
same,GI50,[20],> 100 µM (inactive)
same,GI50,[21],> 100 µM (inactive)
same,GI50,[22],> 100 µM (inactive)
same,GI50,[23],> 100 µM (inactive)
same,GI50,[24],> 100 µM (inactive)
same,GI50,[25],> 100 µM (inactive)
same,GI50,[26],> 100 µM (inactive)
same,GI50,[27],> 100 µM (inactive)
same,GI50,[28],> 100 µM (inactive)
same,GI50,[29],> 100 µM (inactive)
same,GI50,[30],> 100 µM (inactive)
same,GI50,[31],> 100 µM (inactive)
same,GI50,[32],> 100 µM
same,GI50,[33],> 100 µM (inactive)
same,GI50,[34],> 100 µM (inactive)
same,GI50,[35],> 100 µM (inactive)
same,GI50,[36],> 100 µM (inactive)
same,GI50,[37],> 100 µM (inactive)
same,GI50,[38],> 100 µM (inactive)
same,GI50,[39],> 100 µM (inactive)
same,GI50,[40],> 100 µM (inactive)
same,GI50,[41],> 100 µM (inactive)
same,GI50,[42],> 100 µM (inactive)
same,GI50,[43],> 100 µM (inactive)
same,GI50,[44],> 100 µM (inactive)
same,GI50,[45],> 100 µM (inactive)
same,GI50,[46],> 100 µM (inactive)
same,GI50,[47],> 100 µM (inactive)
same,GI50,[48],> 100 µM (inactive)
same,GI50,[49],> 100 µM (inactive)
same,GI50,[50],> 100 µM (inactive)
same,GI50,[51],> 100 µM (inactive)
same,GI50,[52],> 100 µM (inactive)
same,GI50,[53],> 100 µM (inactive)
COP(=O)(OC)C(O)CC(C)C (stereo not drawn),GI50,[1],> 100 µM (inactive)
same,GI50,[4],> 100 µM (inactive)
same,GI50,[5],> 100 µM (inactive)
same,GI50,[7],> 100 µM (inactive)
same,GI50,[8],> 100 µM (inactive)
same,GI50,[54],> 100 µM (inactive)
same,GI50,[9],> 100 µM (inactive)
same,GI50,[10],> 100 µM (inactive)
same,GI50,[11],> 100 µM (inactive)
same,GI50,[55],> 100 µM (inactive)
same,GI50,[12],> 100 µM (inactive)
same,GI50,[13],> 100 µM (inactive)
same,GI50,[14],> 100 µM (inactive)
same,GI50,[17],> 100 µM (inactive)
same,GI50,[19],> 100 µM (inactive)
same,GI50,[20],> 100 µM (inactive)
same,GI50,[22],> 100 µM (inactive)
same,GI50,[24],> 100 µM (inactive)
same,GI50,[26],> 100 µM (inactive)
same,GI50,[27],> 100 µM (inactive)
same,GI50,[28],> 100 µM (inactive)
same,GI50,[29],> 100 µM (inactive)
same,GI50,[30],> 100 µM (inactive)
same,GI50,[31],> 100 µM (inactive)
same,GI50,[56],> 100 µM (inactive)
same,GI50,[33],> 100 µM (inactive)
same,GI50,[35],> 100 µM (inactive)
same,GI50,[36],> 100 µM (inactive)
same,GI50,[37],> 100 µM (inactive)
same,GI50,[38],> 100 µM (inactive)
same,GI50,[40],> 100 µM (inactive)
same,GI50,[41],> 100 µM (inactive)
same,GI50,[42],> 100 µM (inactive)
same,GI50,[43],> 100 µM (inactive)
same,GI50,[44],> 100 µM (inactive)
same,GI50,[45],> 100 µM (inactive)
same,GI50,[46],> 100 µM (inactive)
same,GI50,[47],> 100 µM (inactive)
same,GI50,[48],> 100 µM (inactive)
same,GI50,[49],> 100 µM (inactive)
same,GI50,[50],> 100 µM (inactive)
same,GI50,[51],> 100 µM (inactive)
same,GI50,[52],> 100 µM (inactive)
same,GI50,[53],> 100 µM (inactive)
COc1cc(OC)cc(Oc2nc3cc(N)cc(N)c3nc2-c2ccccc2)c1,GI50,[4],4.52 µM (inactive)
same,GI50,[8],3.85 µM (inactive)
same,GI50,[54],2.86 µM (inactive)
same,GI50,[10],4.25 µM (inactive)
same,GI50,[11],2.19 µM (inactive)
same,GI50,[55],3.44 µM (inactive)
same,GI50,[14],1.02 µM (active)
same,GI50,[20],4.19 µM (inactive)
same,GI50,[33],1.73 µM (inactive)
same,GI50,[36],4.4 µM (inactive)
same,GI50,[40],1.95 µM (inactive)
